# Legend:
# barnyardgrass [1] = test: Test A pre-/postemergence herbicide test; type: in vivo, Echinochloa crus-galli; settings: for Plant response rating, Barnyardgrass: Postemergence; for Barnyardgrass plant response rating: Preemergence
# In short: (§1)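 Both application timings were run together: directed soil spray over freshly planted seeds in sandy loam, and runoff spray onto 2–10 cm seedlings. Evaluation after ~10 days in greenhouse used a 0–100 visual scale versus untreated controls.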
# rice [2] = test: Test B pre-/postemergence herbicide test; type: in vivo, Oryza sativa
# In short: (§2)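 Test chemicals in a non-phytotoxic solvent mixture with surfactant were applied preemergence to seeded species and postemergence to plants 2-18 cm tall (1- to 4-leaf stage); rice and barnyardgrass were also tested in a flooded paddy at the 2-leaf stage. Visual rating versus controls after 13-15 days in greenhouse, scale 0 (no effect) to 100 (complete control).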
# giant foxtail [3] = test: Test A pre-/postemergence herbicide test; type: in vivo, Setaria faberi; settings: for Plant response rating, Foxtail, Giant: Postemergence; for Foxtail, Giant plant response rating: Preemergence
# In short: as §1
# lambsquarters = test: Test B pre-/postemergence herbicide test; type: in vivo, Chenopodium album
# In short: as §2
# wheat = test: Test B postemergence herbicide test; type: in vivo, Triticum aestivum; parameters: key to Wheat plant response rating: 0 = no effect, 100 = complete control; settings: scale 0 (no effect) to 100 (complete control)
# In short: (§3)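 Plants grow to 1- to 4-leaf stage (2–18 cm) for postemergence spraying, or to 2-leaf stage for the paddy test. Formulated compound is applied. Greenhouse holding lasts 13–15 days. Response is scored visually relative to controls, 0 no effect to 100 complete control; a dash means no result.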
# morningglory [4] = test: Test B pre-/postemergence herbicide test; type: in vivo, Ipomoea coccinea
# In short: (§4)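 Plants compared with untreated controls 13–15 days post-treatment and given a visual 0–100 injury score. Applications: preemergence to seeds; postemergence at 1- to 4-leaf (2–18 cm); paddy species flooded, 2-leaf stage. Vehicle non-phytotoxic, surfactant included.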
# giant foxtail [5] = test: Test B pre-/postemergence herbicide test; type: in vivo, Setaria faberi
# In short: as §2
# large crabgrass [6] = test: Test A pre-/postemergence herbicide test; type: in vivo, Digitaria sanguinalis; settings: for Plant response rating, Crabgrass, Large: Postemergence; for Crabgrass, Large plant response rating: Preemergence
# In short: as §1
# morningglory [7] = test: Test A pre-/postemergence herbicide test; type: in vivo, Ipomoea spp.; settings: for Plant response rating, Morningglory: Postemergence; for Morningglory plant response rating: Preemergence
# In short: as §1
# wild oat = test: Test B postemergence herbicide test; type: in vivo, Avena fatua; settings: scale 0 (no effect) to 100 (complete control)
# In short: as §3
# pigweed = test: Test B pre-/postemergence herbicide test; type: in vivo, Amaranthus retroflexus
# In short: as §2
# barnyardgrass [8] = test: Test B pre-/postemergence herbicide test; type: in vivo, Echinochloa crus-galli
# In short: as §4
# cocklebur = test: Test B pre-/postemergence herbicide test; type: in vivo, Xanthium strumarium
# In short: as §4
# barnyardgrass [9] = test: Test B flooded paddy test; type: in vivo, Echinochloa crus-galli; settings: 1000 g ai/ha, visual rating, scale 0 to 100 (0 no effect, 100 complete control), 13 to 15 days
# In short: (§5)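 Formulated test chemicals went onto postemergence plants measuring 2 to 18 cm, at one to four leaves. For the paddy assay, species had reached two leaves. Scoring took place 13–15 days later by eye, relative to untreated plants, using 0 for no effect up to 100 for full control.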
# velvetleaf [10] = test: Test A pre-/postemergence herbicide test; type: in vivo, Abutilon theophrasti; settings: for Velvetleaf plant response rating: Preemergence
# In short: as §1
# redroot pigweed = test: Test A pre-/postemergence herbicide test; type: in vivo, Amaranthus retroflexus; settings: for Plant response rating, Pigweed: Postemergence; for Pigweed plant response rating: Preemergence
# In short: as §1
# Surinam grass = test: Test B pre-/postemergence herbicide test; type: in vivo, Urochloa decumbens
# In short: as §2
# corn = test: Test B pre-/postemergence herbicide test; type: in vivo, Zea mays
# In short: as §2
# large crabgrass [11] = test: Test B pre-/postemergence herbicide test; type: in vivo, Digitaria sanguinalis
# In short: as §2
# ducksalad = test: Test B flooded paddy test; type: in vivo, Heteranthera limosa; settings: 1000 g ai/ha, visual rating, scale 0 to 100 (0 no effect, 100 complete control), 13 to 15 days
# In short: as §5
# [12] = system: small flower umbrella sedge; test: Test B flooded paddy test; type: in vivo, Cyperus difformis; settings: 1000 g ai/ha, visual rating, scale 0 to 100 (0 no effect, 100 complete control), 13 to 15 days
# In short: as §5
# rice [13] = test: Test B flooded paddy test; type: in vivo, Oryza sativa; settings: 1000 g ai/ha, visual rating, scale 0 to 100 (0 no effect, 100 complete control), 13 to 15 days
# In short: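 Paddy species grown to the 2-leaf stage under flooding; blackgrass sprayed postemergence at 2–18 cm (1- to 4-leaf stage). Plants kept in a greenhouse for 13 to 15 days, then visually rated against controls on 0 (no effect) to 100 (complete control).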
# blackgrass = test: Test B postemergence herbicide test; type: in vivo, Alopecurus myosuroides; settings: scale 0 (no effect) to 100 (complete control)
# In short: as §5
# velvetleaf [14] = test: Test B pre-/postemergence herbicide test; type: in vivo, Abutilon theophrasti
# In short: as §2
# [15] = 500 g ai/ha, 0 to 100 scale, 0 no effect, 100 complete control
# [16] = 2000 g ai/ha, 0 to 100 scale, 0 no effect, 100 complete control
# [17] = 500 g ai/ha, visual rating, 0 to 100 scale (0 no effect, 100 complete control)
# [18] = Preemergence, 500 g ai/ha, scale 0 to 100
# [19] = preemergence, 125 g ai/ha, 0 to 100 scale, 0 is no effect, 100 is complete control
# [20] = Postemergence, 500 g ai/ha, visual rating after 13 to 15 days, scale 0 (no effect) to 100 (complete control)
# [21] = postemergence, 125 g ai/ha, visual rating, scale 0 (no effect) to 100 (complete control)
# [22] = Postemergence, 500 g ai/ha, visual rating after 13 to 15 days
# [23] = postemergence, 125 g ai/ha, visual rating
smiles,measurement,setting,value
CCn1nc(C(C)(C)C)cc1C(=O)Nc1cccc2c1CNC2=O [Compound 52],"Plant response rating, Barnyardgrass",barnyardgrass [1]; [15],25
same,"Plant response rating, Barnyardgrass",barnyardgrass [1]; [16],55
same,Barnyardgrass plant response rating,barnyardgrass [1]; [17],25
same,Barnyardgrass plant response rating,barnyardgrass [1]; [16],90
same,Rice plant response rating,rice [2]; [18],80
same,"Plant response rating, Rice",rice [2]; [19],0
same,"Plant response rating, Foxtail, Giant",giant foxtail [3]; [15],25
same,"Plant response rating, Foxtail, Giant",giant foxtail [3]; [16],25
same,"Foxtail, Giant plant response rating",giant foxtail [3]; [17],20
same,"Foxtail, Giant plant response rating",giant foxtail [3]; [16],60
same,"Plant response rating, Lambsquarters",lambsquarters; [20],80
same,Lambsquarters plant response rating,lambsquarters; [18],90
same,Lambsquarters plant response rating,lambsquarters; [21],0
same,"Plant response rating, Lambsquarters",lambsquarters; [19],0
same,"Plant response rating, Wheat",wheat; [22],0
same,Wheat plant response rating,wheat; [23],0
same,"Plant response rating, Morningglory",morningglory [4]; [20],0
same,Morningglory plant response rating,morningglory [4]; [18],0
same,Morningglory plant response rating,morningglory [4]; [21],0
same,"Plant response rating, Morningglory",morningglory [4]; [19],0
same,"Plant response rating, Foxtail, Giant",giant foxtail [5]; [20],10
same,"Foxtail, Giant plant response rating",giant foxtail [5]; [18],60
same,"Foxtail, Giant plant response rating",giant foxtail [5]; [21],10
same,"Plant response rating, Foxtail, Giant",giant foxtail [5]; [19],10
same,"Plant response rating, Crabgrass, Large",large crabgrass [6]; [15],0
same,"Plant response rating, Crabgrass, Large",large crabgrass [6]; [16],20
same,"Crabgrass, Large plant response rating",large crabgrass [6]; [17],70
same,"Crabgrass, Large plant response rating",large crabgrass [6]; [16],90
same,"Plant response rating, Morningglory",morningglory [7]; [15],0
same,"Plant response rating, Morningglory",morningglory [7]; [16],0
same,Morningglory plant response rating,morningglory [7]; [17],0
same,Morningglory plant response rating,morningglory [7]; [16],10
same,"Plant response rating, Oat, Wild",wild oat; [22],10
same,"Oat, Wild plant response rating",wild oat; [23],0
same,"Plant response rating, Pigweed",pigweed; [20],10
same,Pigweed plant response rating,pigweed; [18],90
same,Pigweed plant response rating,pigweed; [21],0
same,"Plant response rating, Pigweed",pigweed; [19],0
same,"Plant response rating, Barnyardgrass",barnyardgrass [8]; [20],0
same,Barnyardgrass plant response rating,barnyardgrass [8]; [18],60
same,Barnyardgrass plant response rating,barnyardgrass [8]; [21],0
same,"Plant response rating, Barnyardgrass",barnyardgrass [8]; [19],10
same,"Plant response rating, Cocklebur",cocklebur; [20],40
same,Cocklebur plant response rating,cocklebur; [18],10
same,Cocklebur plant response rating,cocklebur; [21],20
same,"Plant response rating, Cocklebur",cocklebur; [19],0
same,Barnyardgrass plant response rating,barnyardgrass [9],20
same,"Plant response rating, Velvetleaf","velvetleaf [10]; Postemergence, 2000 g ai/ha, 0 to 100 scale, 0 no effect, 100 complete control",20
same,Velvetleaf plant response rating,velvetleaf [10]; [17],15
same,Velvetleaf plant response rating,velvetleaf [10]; [16],50
same,"Plant response rating, Pigweed",redroot pigweed; [15],30
same,"Plant response rating, Pigweed",redroot pigweed; [16],35
same,Pigweed plant response rating,redroot pigweed; [17],90
same,Pigweed plant response rating,redroot pigweed; [16],90
same,"Plant response rating, Surinam Grass",Surinam grass; [20],0
same,Surinam Grass plant response rating,Surinam grass; [18],30
same,Surinam Grass plant response rating,Surinam grass; [21],0
same,"Plant response rating, Surinam Grass",Surinam grass; [19],0
same,"Plant response rating, Corn",corn; [20],40
same,Corn plant response rating,corn; [18],0
same,Corn plant response rating,corn; [21],10
same,"Plant response rating, Corn",corn; [19],0
same,"Plant response rating, Crabgrass, Large",large crabgrass [11]; [20],10
same,"Crabgrass, Large plant response rating",large crabgrass [11]; [18],90
same,"Crabgrass, Large plant response rating",large crabgrass [11]; [21],0
same,"Plant response rating, Crabgrass, Large",large crabgrass [11]; [19],20
same,Ducksalad plant response rating,ducksalad,20
same,"Sedge, Umbrella plant response rating",[12],40
same,Rice plant response rating,rice [13],0
same,"Plant response rating, Blackgrass",blackgrass; [22],0
same,Blackgrass plant response rating,blackgrass; [23],0
same,"Plant response rating, Velvetleaf",velvetleaf [14]; [20],20
same,Velvetleaf plant response rating,velvetleaf [14]; [18],20
same,Velvetleaf plant response rating,velvetleaf [14]; [21],10
same,"Plant response rating, Velvetleaf",velvetleaf [14]; [19],0

# Source: patent publication US20060069132A1, “Azolecarboxamide herbicides” (priority 2004, published 2006)
